What all share (format): in vivo
Assay [1] relates to human NCI-H441 tumor cells. Put plainly: Human NCI-H441 lung xenograft model. To be noted: oral daily; for median tumor volume change: day 21, female CD-1 nude mice, s.c. NCI-H441, 100 mg/kg pyridazinone, 30 mg/kg quinazoline, alone or combined; for median time until tumor progression: progression = TV change >73%, treatment up to 78 days, CD-1 nude mice. How it is done: Background: The human NCI-H441 lung model is an c-Met overexpressing tumor model with an activated c-Met pathway. This model carries a kras mutation. Literature data have shown phosphorylation of S6K is present in this tumor model.
(§1) Method: Female CD-1 nude mice (6-8 week old) where subcutaneously injected with human NCI-H441 tumor cells and were divided into treatment groups (8 animals per group) after the tumors were established. Respective groups were administered orally with the 3-(1-{3-[5-(1-Methyl-piperidin-4-ylmethoxy)-pyrimidin-2-yl]-benzyl}-6-oxo-1,6-dihydro-pyridazin-3-yl)-benzonitrile hydrochloride hydrate (100 mg/kg) or 4-[(S)-2-azetidin-1-yl-1-(4-chloro-3-trifluoromethyl-phenyl)-ethylamino]-quinazoline-8-carboxylic acid amide (30 mg/kg) daily in monotherapy or in combination until tumors progressed or until treatment period of 78 days. At day 21, the day of vehicle group termination, median tumor volume change in % were calculated. Statistical analysis has been done with two way-RM ANOVA. Median time until tumor progression under treatment has been calculated at the end of the study. Tumor progression is defined as tumor volume change >73%.

The next assay relates to human U87-MG tumor cells. Put plainly: Human U87-MG xenograft model. Conditions: oral daily; for median tumor volume (TV) change: day 12, female CD-1 nude mice, s.c. U87-MG, 100 mg/kg pyridazinone, 30 mg/kg quinazoline, alone or combined; for median time until tumor progression: progression = TV change >73%, treatment up to 65 days, CD-1 nude mice. How it is done: Background: The human U87-MG glioblastoma model is an autocrine HGF/c-Met expressing tumor model with an activated c-Met pathway. This model carries a mutation of PTEN, a negative regulator of the PI3K signaling.
Method: Female CD-1 nude mice (6-8 weeks old) where subcutaneously injected with human U87-MG tumor cells and were divided into treatment groups (8 animals per group) after the tumors were established. Respective groups were administered orally with the 3-(1-{3-[5-(1-Methyl-piperidin-4-ylmethoxy)-pyrimidin-2-yl]-benzyl}-6-oxo-1,6-dihydro-pyridazin-3-yl)-benzonitrile hydrochloride hydrate (100 mg/kg) or 4-[(S)-2-azetidin-1-yl-1-(4-chloro-3-trifluoromethyl-phenyl)-ethylamino]-quinazoline-8-carboxylic acid amide (30 mg/kg) daily in monotherapy or in combination until tumors progressed or until treatment period of 65 days. At day 12, the day of vehicle group termination, median tumor volume (TV) change in % were calculated. Statistical analysis has been done with two way-RM ANOVA. Median time until tumor progression under treatment has been calculated at the end of the study. Tumor progression is defined as tumor volume change >73%.

The subject of a further assay is human H596 tumor cells. Put plainly: Human HGF dependent H596 lung xenograft model. To be noted: oral daily; for median tumor volume change: day 14, female humanized HGF SCID mice, s.c. H596, 100 mg/kg pyridazinone, 30 mg/kg (from day 12 20 mg/kg) quinazoline, alone or combined; for median time until tumor progression: progression = TV change >73%, treatment up to 66 days, humanized HGF SCID mice.
Text: Background: The human H596 lung model is c-Met expressing paracrine HGF/c-Met tumor model which a juxta-membran (JM) domain mutation of c-Met which lead to prolonged c-Met activation after HGF ligand binding. The model expresses […] with an activated c-Met pathway. This model carries a PI3KCA mutation (literature data).
Method: Female humanized HGF SCID mice (8-10 weeks old) where subcutaneously injected with human H596 tumor cells and were divided into treatment groups (8 animals per group) after the tumors were established.
as §1, with “Respective” for “Method: Female CD-1 nude mice (6-8 week old) where subcutaneously injected with human NCI-H441 tumor cells and were divided into treatment groups (8 animals per group) after the tumors were established. Respective”, “(30 mg/kg, from day 12 20” for “(30”, “of 66” for “of 78”, “day 14,” for “day 21,”, “day when all animals in the” for “day of”, “group were still present,” for “group termination,”

Regarding `CN1CCC(COc2cnc(-c3cccc(Cn4nc(-c5cccc(C#N)c5)ccc4=O)c3)nc2)CC1.Cl.O` [3-(1-{3-[5-(1-Methyl-piperidin-4-ylmethoxy)-pyrimidin-2-yl]-benzyl}-6-oxo-1,6-dihydro-pyridazin-3-yl)-benzonitrile hydrochloride hydrate], in assay [1], the “median tumor volume change” value is −1% and the “median time until tumor progression” value stood at 67 days. In addition, in the assay with human U87-MG tumor cells, the “median tumor volume (TV) change” value is recorded as −71% and the “median time until tumor progression” value stood at 58 days. Further, in the assay on human H596 tumor cells, the “median tumor volume change” value was found to be 35% and the “median time until tumor progression” value stood at 24 days.

Take `NC(=O)c1cccc2c(N[C@H](CN3CCC3)c3ccc(Cl)c(C(F)(F)F)c3)ncnc12` [4-[(S)-2-Azetidin-1-yl-1-(4-chloro-3-trifluoromethyl-phenyl)-ethylamino]-quinazoline-8-carboxylic acid amide]: the “median tumor volume change” value in assay [1] is recorded as 138%; in the assay on human H596 tumor cells, 36%. The “median time until tumor progression” value in assay [1] was determined as 14 days; in the assay on human U87-MG tumor cells, 14 days; in the assay with human H596 tumor cells it was 24 days. In addition, the “median tumor volume (TV) change” value in the assay on human U87-MG tumor cells is 51%.
